Experimental data: US9738634B2, “Heterocyclic amide compound and herbicide” (SYNGENTA PARTICIPATIONS AG, priority 2013, dated 2017)

Columns and labels:
Format in all cases: in vivo
barnyard grass [1] = assay: Test Example 1: weedkilling efficacy, preemergent weed treatment in the submerged state; A: barnyard grass; details: treatment dosage 252 g/ha
Summary of the method: (§1)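 Emulsion diluted with water to the specified per-hectare dosage is applied onto flood water (4 cm) over alluvial soil on the sowing day, with barnyard grass, bulrush and pondweed seeded and rice (2.5-leaf) transplanted; plants grow at 25–30 °C and are rated at 3 weeks.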

bulrush [2] = assay: Test Example 1: weedkilling efficacy, preemergent weed treatment in the submerged state; B: bulrush; details: treatment dosage 252 g/ha
Summary of the method: as §1

oval-leafed pondweed [3] = assay: Test Example 1: weedkilling efficacy, preemergent weed treatment in the submerged state; C: oval-leafed pondweed; details: treatment dosage 252 g/ha
Summary of the method: as §1

transplanted rice = assay: Test Example 1: preemergent weed treatment in the submerged state, effect on crop; a: transplanted rice; details: treatment dosage 252 g/ha
Summary of the method: as §1

barnyard grass [4] = assay: Test Example 2: weedkilling efficacy, growth period weed treatment in the submerged state; A: barnyard grass; details: treatment dosage 252 g/ha
Summary of the method: (§2)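 First, alluvial soil in pots is flooded to 4 cm and mixed seed is sown. Next, plants grow in a greenhouse at 25 to 30° C until the 1-2 leaf stage. Then diluted emulsion is applied onto the water surface at the given g/ha rate, and injury is assessed after 3 weeks.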

bulrush [5] = assay: Test Example 2: weedkilling efficacy, growth period weed treatment in the submerged state; B: bulrush; details: treatment dosage 252 g/ha
Summary of the method: as §2

oval-leafed pondweed [6] = assay: Test Example 2: weedkilling efficacy, growth period weed treatment in the submerged state; C: oval-leafed pondweed; details: treatment dosage 252 g/ha
Summary of the method: as §2

crabgrass [7] = assay: Test Example 3: weedkilling efficacy through soil treatment; D: crabgrass; details: treatment dosage 315 g/ha
Summary of the method: (§3)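 Crop and weed responses were judged three weeks after a uniform surface spray of the water-diluted emulsion at the given g/ha rate. Seeds sat beneath about 1.5 cm of sterilized diluvial soil, and boxes stood in a greenhouse at 25 to 30° C.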

green foxtail [8] = assay: Test Example 3: weedkilling efficacy through soil treatment; E: green foxtail; details: treatment dosage 315 g/ha
Summary of the method: as §3

wild oat [9] = assay: Test Example 3: weedkilling efficacy through soil treatment; G: wild oat; details: treatment dosage 315 g/ha
Summary of the method: as §3

black-grass [10] = assay: Test Example 3: weedkilling efficacy through soil treatment; H: black-grass; details: treatment dosage 315 g/ha
Summary of the method: as §3

Italian ryegrass [11] = assay: Test Example 3: weedkilling efficacy through soil treatment; I: Italian ryegrass; details: treatment dosage 315 g/ha
Summary of the method: as §3

Indian mallow [12] = assay: Test Example 3: weedkilling efficacy through soil treatment; K: Indian mallow; details: treatment dosage 315 g/ha
Summary of the method: as §3

redroot pigweed [13] = assay: Test Example 3: weedkilling efficacy through soil treatment; L: redroot pigweed; details: treatment dosage 315 g/ha
Summary of the method: as §3

fig-leafed goosefoot [14] = assay: Test Example 3: weedkilling efficacy through soil treatment; M: fig-leafed goosefoot; details: treatment dosage 315 g/ha
Summary of the method: as §3

chickweed [15] = assay: Test Example 3: weedkilling efficacy through soil treatment; N: chickweed; details: treatment dosage 315 g/ha
Summary of the method: as §3

catchweed [16] = assay: Test Example 3: weedkilling efficacy through soil treatment; O: catchweed; details: treatment dosage 315 g/ha
Summary of the method: as §3

birds-eye speedwell = assay: Test Example 3: weedkilling efficacy through soil treatment; p: birds-eye speedwell; details: treatment dosage 315 g/ha
Summary of the method: as §3

directly sown rice [17] = assay: Test Example 3: soil treatment, effect on crop; b: directly sown rice; details: treatment dosage 315 g/ha
Summary of the method: as §3

corn [18] = assay: Test Example 3: soil treatment, effect on crop; c: corn; details: treatment dosage 315 g/ha
Summary of the method: as §3

soybean [19] = assay: Test Example 3: soil treatment, effect on crop; d: soybean; details: treatment dosage 315 g/ha
Summary of the method: as §3

wheat [20] = assay: Test Example 3: soil treatment, effect on crop; e: wheat; details: treatment dosage 315 g/ha
Summary of the method: as §3

crabgrass [21] = assay: Test Example 4: weedkilling efficacy by foliar treatment; D: crabgrass; details: treatment dosage 315 g/ha
Summary of the method: (§4)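 Seeds are spot-sown into sterilized diluvial soil and covered with about 1.5 cm of soil. After 14 days' greenhouse growth at 25 to 30° C, plants are sprayed on stems and leaves with diluted emulsion at the stated g/ha rate, then scored at 3 weeks.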

green foxtail [22] = assay: Test Example 4: weedkilling efficacy by foliar treatment; E: green foxtail; details: treatment dosage 315 g/ha
Summary of the method: as §4

wild oat [23] = assay: Test Example 4: weedkilling efficacy by foliar treatment; G: wild oat; details: treatment dosage 315 g/ha
Protocol: Testing of Weedkilling Efficacy by Foliar Treatment
Sterilized diluvial soil was introduced into 21 cm long, 13 cm wide, 7 cm deep plastic boxes, and seeds of crabgrass, green foxtail, barnyard grass, wild oat, black-grass, Italian ryegrass, common wind-grass, Indian mallow, redroot pigweed, fig-leafed goosefoot, chickweed, catchweed, birds-eye speedwell, corn, soybean, rice, wheat, beet and rapeseed were each spot-sown, and covered with about 1.5 cm of soil, then the plants were grown in a greenhouse at 25 to 30° C.
After they had grown for 14 days, emulsions of compounds of the present invention prepared according to compounding example 2 were diluted with water to give the specified dosages, and applied uniformly onto the stem and leaf parts with a small sprayer. 3 weeks after the pesticide treatment the effect on each type of plant was investigated on the basis of the assessment criteria of test example 1.
A: barnyard grass, B: bulrush, C: oval-leafed pondweed, D: crabgrass, E: green foxtail, F: barnyard grass, G: wild oat, H: black-grass, I: Italian ryegrass, J: common wind-grass, K: Indian mallow, L: redroot pigweed, M: fig-leafed goosefoot, N: chickweed, O: catchweed, p: birds-eye speedwell, a: transplanted rice, b: directly sown rice, c: corn, d: soybean, e: wheat, f: beet, g: rapeseed
Further, pesticide dosage (g/ha) indicates the concentration regulated such that treatment was with only the stated number of grams (g), when calculated per hectare (ha).

black-grass [24] = assay: Test Example 4: weedkilling efficacy by foliar treatment; H: black-grass; details: treatment dosage 315 g/ha
Summary of the method: as §4

Italian ryegrass [25] = assay: Test Example 4: weedkilling efficacy by foliar treatment; I: Italian ryegrass; details: treatment dosage 315 g/ha
Summary of the method: as §4

Indian mallow [26] = assay: Test Example 4: weedkilling efficacy by foliar treatment; K: Indian mallow; details: treatment dosage 315 g/ha
Summary of the method: as §4

redroot pigweed [27] = assay: Test Example 4: weedkilling efficacy by foliar treatment; L: redroot pigweed; details: treatment dosage 315 g/ha
Summary of the method: as §4

fig-leafed goosefoot [28] = assay: Test Example 4: weedkilling efficacy by foliar treatment; M: fig-leafed goosefoot; details: treatment dosage 315 g/ha
Summary of the method: as §4

chickweed [29] = assay: Test Example 4: weedkilling efficacy by foliar treatment; N: chickweed; details: treatment dosage 315 g/ha
Summary of the method: as §4

catchweed [30] = assay: Test Example 4: weedkilling efficacy by foliar treatment; O: catchweed; details: treatment dosage 315 g/ha
Summary of the method: as §4

directly sown rice [31] = assay: Test Example 4: foliar treatment, effect on crop; b: directly sown rice; details: treatment dosage 315 g/ha
Summary of the method: as §4

corn [32] = assay: Test Example 4: foliar treatment, effect on crop; c: corn; details: treatment dosage 315 g/ha
Summary of the method: as §4

soybean [33] = assay: Test Example 4: foliar treatment, effect on crop; d: soybean; details: treatment dosage 315 g/ha
Summary of the method: as §4

wheat [34] = assay: Test Example 4: foliar treatment, effect on crop; e: wheat; details: treatment dosage 315 g/ha
Summary of the method: as §4

beet = assay: Test Example 4: foliar treatment, effect on crop; f: beet; details: treatment dosage 315 g/ha
Summary of the method: as §4

CC1=C(c2ccccc2)C(=O)N(C(C)(C)C(=O)Nc2cccc(C(F)(F)F)n2)CO1 [B-2-58]
A (barnyard grass) weedkilling efficacy grade (barnyard grass [1]): 5 (weed kill ratio 90% or more, (practically complete withering)) | B (bulrush) weedkilling efficacy grade (bulrush [2]): 5 (weed kill ratio 90% or more, (practically complete withering)) | C (oval-leafed pondweed) weedkilling efficacy grade (oval-leafed pondweed [3]): 5 (weed kill ratio 90% or more, (practically complete withering)) | a (transplanted rice) effect on crop grade (transplanted rice): 0 (weed kill ratio 5% or less (practically no effect)) | A (barnyard grass) weedkilling efficacy grade (barnyard grass [4]): 3 (weed kill ratio 40% or more, less than 70%) | B (bulrush) weedkilling efficacy grade (bulrush [5]): 5 (weed kill ratio 90% or more, (practically complete withering)) | C (oval-leafed pondweed) weedkilling efficacy grade (oval-leafed pondweed [6]): 4 (weed kill ratio 70% or more, less than 90%) | D (crabgrass) weedkilling efficacy grade (crabgrass [7]): 5 (weed kill ratio 90% or more, (practically complete withering)) | E (green foxtail) weedkilling efficacy grade (green foxtail [8]): 5 (weed kill ratio 90% or more, (practically complete withering)) | G (wild oat) weedkilling efficacy grade (wild oat [9]): 3 (weed kill ratio 40% or more, less than 70%) | H (black-grass) weedkilling efficacy grade (black-grass [10]): 4 (weed kill ratio 70% or more, less than 90%) | I (Italian ryegrass) weedkilling efficacy grade (Italian ryegrass [11]): 5 (weed kill ratio 90% or more, (practically complete withering)) | K (Indian mallow) weedkilling efficacy grade (Indian mallow [12]): 1 (weed kill ratio 5% or more, less than 20%) | L (redroot pigweed) weedkilling efficacy grade (redroot pigweed [13]): 3 (weed kill ratio 40% or more, less than 70%) | M (fig-leafed goosefoot) weedkilling efficacy grade (fig-leafed goosefoot [14]): 4 (weed kill ratio 70% or more, less than 90%) | N (chickweed) weedkilling efficacy grade (chickweed [15]): 4 (weed kill ratio 70% or more, less than 90%) | O (catchweed) weedkilling efficacy grade (catchweed [16]): 0 (weed kill ratio 5% or less (practically no effect)) | P (birds-eye speedwell) weedkilling efficacy grade (birds-eye speedwell): 5 (weed kill ratio 90% or more, (practically complete withering)) | b (directly sown rice) effect on crop grade (directly sown rice [17]): 3 (weed kill ratio 40% or more, less than 70%) | c (corn) effect on crop grade (corn [18]): 1 (weed kill ratio 5% or more, less than 20%) | d (soybean) effect on crop grade (soybean [19]): 0 (weed kill ratio 5% or less (practically no effect)) | e (wheat) effect on crop grade (wheat [20]): 0 (weed kill ratio 5% or less (practically no effect)) | D (crabgrass) weedkilling efficacy grade (crabgrass [21]): 5 (weed kill ratio 90% or more, (practically complete withering)) | E (green foxtail) weedkilling efficacy grade (green foxtail [22]): 5 (weed kill ratio 90% or more, (practically complete withering)) | G (wild oat) weedkilling efficacy grade (wild oat [23]): 3 (weed kill ratio 40% or more, less than 70%) | H (black-grass) weedkilling efficacy grade (black-grass [24]): 5 (weed kill ratio 90% or more, (practically complete withering)) | I (Italian ryegrass) weedkilling efficacy grade (Italian ryegrass [25]): 5 (weed kill ratio 90% or more, (practically complete withering)) | K (Indian mallow) weedkilling efficacy grade (Indian mallow [26]): 3 (weed kill ratio 40% or more, less than 70%) | L (redroot pigweed) weedkilling efficacy grade (redroot pigweed [27]): 3 (weed kill ratio 40% or more, less than 70%) | M (fig-leafed goosefoot) weedkilling efficacy grade (fig-leafed goosefoot [28]): 3 (weed kill ratio 40% or more, less than 70%) | N (chickweed) weedkilling efficacy grade (chickweed [29]): 3 (weed kill ratio 40% or more, less than 70%) | O (catchweed) weedkilling efficacy grade (catchweed [30]): 1 (weed kill ratio 5% or more, less than 20%) | b (directly sown rice) effect on crop grade (directly sown rice [31]): 4 (weed kill ratio 70% or more, less than 90%) | c (corn) effect on crop grade (corn [32]): 3 (weed kill ratio 40% or more, less than 70%) | d (soybean) effect on crop grade (soybean [33]): 3 (weed kill ratio 40% or more, less than 70%) | e (wheat) effect on crop grade (wheat [34]): 1 (weed kill ratio 5% or more, less than 20%) | f (beet) effect on crop grade (beet): 4 (weed kill ratio 70% or more, less than 90%)
